{"source": "patent US7504230B2", "about": "“Method of identifying a useful set of signal transduction proteins from a multiplicity of potentially useful proteins” (Trelolis Bioscience, Inc., priority 1999, dated 2009)", "origin": "cited, not measured here", "key": {"[1]": {"system": "fusion of the C1 region with green fluorescent protein (GFP)", "conditions": "from a diffuse cytoplasmic localization"}, "PKC isoenzyme ζ": {"target": "T1, PKC isoenzyme ζ (Homo sapiens, UniProt Q05513)", "T1 construct": "endogenous in cells; host or cells: hDMEC (human dermal microvascular endothelial cells)", "T1 sequence (Q05513 1-592)": "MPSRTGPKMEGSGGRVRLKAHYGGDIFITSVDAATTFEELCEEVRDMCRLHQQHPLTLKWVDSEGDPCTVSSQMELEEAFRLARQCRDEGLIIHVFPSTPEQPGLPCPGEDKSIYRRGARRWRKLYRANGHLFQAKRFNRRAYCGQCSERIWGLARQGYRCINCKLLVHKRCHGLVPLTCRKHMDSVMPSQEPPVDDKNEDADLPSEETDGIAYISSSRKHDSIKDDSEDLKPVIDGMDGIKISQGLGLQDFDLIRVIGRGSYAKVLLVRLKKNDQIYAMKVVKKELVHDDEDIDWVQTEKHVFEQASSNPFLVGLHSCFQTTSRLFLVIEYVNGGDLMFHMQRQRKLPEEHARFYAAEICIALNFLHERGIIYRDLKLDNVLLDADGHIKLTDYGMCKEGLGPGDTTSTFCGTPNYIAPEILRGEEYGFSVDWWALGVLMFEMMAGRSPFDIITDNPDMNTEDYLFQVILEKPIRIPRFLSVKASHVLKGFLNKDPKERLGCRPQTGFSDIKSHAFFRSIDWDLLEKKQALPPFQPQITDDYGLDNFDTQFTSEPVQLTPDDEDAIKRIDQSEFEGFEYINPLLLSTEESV", "conditions": "hDMEC, after stimulation with PMA; from fibrillar structures"}, "PKC isoenzyme δ": {"target": "T2, PKC isoenzyme δ (Homo sapiens, UniProt Q05655)", "T2 construct": "endogenous in cells; host or cells: hDMEC (human dermal microvascular endothelial cells)", "T2 sequence (Q05655 whole entry)": "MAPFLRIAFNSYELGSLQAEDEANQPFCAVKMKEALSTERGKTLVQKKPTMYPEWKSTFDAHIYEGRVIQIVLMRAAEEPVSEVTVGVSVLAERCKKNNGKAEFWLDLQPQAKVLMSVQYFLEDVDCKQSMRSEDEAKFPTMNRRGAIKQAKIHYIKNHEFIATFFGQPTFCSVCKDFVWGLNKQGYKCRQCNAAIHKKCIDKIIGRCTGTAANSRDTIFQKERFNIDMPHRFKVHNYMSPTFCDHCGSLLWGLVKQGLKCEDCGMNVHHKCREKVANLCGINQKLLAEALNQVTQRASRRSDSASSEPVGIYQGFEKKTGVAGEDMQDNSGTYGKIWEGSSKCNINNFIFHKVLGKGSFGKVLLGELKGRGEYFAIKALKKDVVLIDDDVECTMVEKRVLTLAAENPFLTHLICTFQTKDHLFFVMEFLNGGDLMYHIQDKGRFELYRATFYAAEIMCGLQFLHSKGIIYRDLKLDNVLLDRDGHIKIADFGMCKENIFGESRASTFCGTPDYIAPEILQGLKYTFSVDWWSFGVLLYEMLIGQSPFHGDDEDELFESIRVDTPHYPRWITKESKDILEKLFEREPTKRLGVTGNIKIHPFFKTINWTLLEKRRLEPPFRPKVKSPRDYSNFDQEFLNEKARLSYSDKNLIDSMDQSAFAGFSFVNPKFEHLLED", "conditions": "hDMEC, after stimulation with PMA; from cytosol"}, "PKC isoenzyme α": {"target": "T3, PKC isoenzyme α (Homo sapiens, UniProt P17252)", "T3 construct": "endogenous in cells; host or cells: hDMEC (human dermal microvascular endothelial cells)", "conditions": "hDMEC, after stimulation with PMA; from cytosol"}, "PKC isoenzyme ε": {"target": "T4, PKC isoenzyme ε (Homo sapiens, UniProt Q02156)", "T4 construct": "endogenous in cells; host or cells: hDMEC (human dermal microvascular endothelial cells)", "T4 sequence (Q02156 1-737)": "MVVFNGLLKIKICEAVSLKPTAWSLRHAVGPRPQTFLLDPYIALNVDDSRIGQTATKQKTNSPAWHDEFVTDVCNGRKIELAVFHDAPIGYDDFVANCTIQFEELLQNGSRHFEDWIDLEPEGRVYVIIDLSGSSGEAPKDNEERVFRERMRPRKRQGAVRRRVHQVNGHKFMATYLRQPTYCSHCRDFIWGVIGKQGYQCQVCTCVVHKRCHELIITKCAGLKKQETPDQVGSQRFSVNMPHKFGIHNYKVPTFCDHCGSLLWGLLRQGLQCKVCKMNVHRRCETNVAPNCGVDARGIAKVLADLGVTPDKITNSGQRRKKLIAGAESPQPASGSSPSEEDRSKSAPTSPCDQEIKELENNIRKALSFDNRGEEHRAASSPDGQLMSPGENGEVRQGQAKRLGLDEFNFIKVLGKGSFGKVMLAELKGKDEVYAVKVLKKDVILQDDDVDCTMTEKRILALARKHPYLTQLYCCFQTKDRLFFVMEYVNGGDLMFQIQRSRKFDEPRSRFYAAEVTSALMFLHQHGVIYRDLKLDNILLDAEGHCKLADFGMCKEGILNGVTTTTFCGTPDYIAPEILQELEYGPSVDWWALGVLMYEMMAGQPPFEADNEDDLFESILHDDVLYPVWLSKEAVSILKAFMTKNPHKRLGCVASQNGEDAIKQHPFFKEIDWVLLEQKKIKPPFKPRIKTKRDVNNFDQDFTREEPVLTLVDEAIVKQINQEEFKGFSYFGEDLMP", "conditions": "hDMEC, after stimulation with PMA; from periphery"}, "PKC isoenzyme βII": {"target": "T5, PKC isoenzyme βII (Homo sapiens, UniProt P05771)", "T5 construct": "endogenous in cells; host or cells: hDMEC (human dermal microvascular endothelial cells)", "T5 sequence (P05771 1-673 isoform P05771-2)": "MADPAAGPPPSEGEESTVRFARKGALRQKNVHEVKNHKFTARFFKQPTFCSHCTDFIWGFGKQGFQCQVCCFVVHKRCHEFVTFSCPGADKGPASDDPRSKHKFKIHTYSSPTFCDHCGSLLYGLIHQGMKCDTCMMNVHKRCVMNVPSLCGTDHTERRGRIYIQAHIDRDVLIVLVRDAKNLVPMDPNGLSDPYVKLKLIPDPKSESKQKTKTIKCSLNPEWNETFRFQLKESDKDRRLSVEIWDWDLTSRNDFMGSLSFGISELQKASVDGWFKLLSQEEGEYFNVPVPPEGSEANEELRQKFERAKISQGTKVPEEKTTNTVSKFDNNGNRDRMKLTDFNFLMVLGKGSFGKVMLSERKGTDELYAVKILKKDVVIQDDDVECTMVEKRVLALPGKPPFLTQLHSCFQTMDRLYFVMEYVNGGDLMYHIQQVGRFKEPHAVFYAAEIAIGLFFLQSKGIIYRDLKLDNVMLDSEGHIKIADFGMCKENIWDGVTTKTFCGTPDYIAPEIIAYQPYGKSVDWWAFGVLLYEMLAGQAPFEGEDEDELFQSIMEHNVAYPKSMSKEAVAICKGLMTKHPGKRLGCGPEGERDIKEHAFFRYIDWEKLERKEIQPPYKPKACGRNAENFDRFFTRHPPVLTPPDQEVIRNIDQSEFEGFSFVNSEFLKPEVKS", "conditions": "hDMEC, after stimulation with PMA; from nucleus"}, "PKC isoenzyme β": {"target": "T6, PKC isoenzyme β (Homo sapiens, UniProt P05771)", "T6 construct": "endogenous in cells; host or cells: hDMEC (human dermal microvascular endothelial cells)", "T6 sequence (P05771 whole entry)": "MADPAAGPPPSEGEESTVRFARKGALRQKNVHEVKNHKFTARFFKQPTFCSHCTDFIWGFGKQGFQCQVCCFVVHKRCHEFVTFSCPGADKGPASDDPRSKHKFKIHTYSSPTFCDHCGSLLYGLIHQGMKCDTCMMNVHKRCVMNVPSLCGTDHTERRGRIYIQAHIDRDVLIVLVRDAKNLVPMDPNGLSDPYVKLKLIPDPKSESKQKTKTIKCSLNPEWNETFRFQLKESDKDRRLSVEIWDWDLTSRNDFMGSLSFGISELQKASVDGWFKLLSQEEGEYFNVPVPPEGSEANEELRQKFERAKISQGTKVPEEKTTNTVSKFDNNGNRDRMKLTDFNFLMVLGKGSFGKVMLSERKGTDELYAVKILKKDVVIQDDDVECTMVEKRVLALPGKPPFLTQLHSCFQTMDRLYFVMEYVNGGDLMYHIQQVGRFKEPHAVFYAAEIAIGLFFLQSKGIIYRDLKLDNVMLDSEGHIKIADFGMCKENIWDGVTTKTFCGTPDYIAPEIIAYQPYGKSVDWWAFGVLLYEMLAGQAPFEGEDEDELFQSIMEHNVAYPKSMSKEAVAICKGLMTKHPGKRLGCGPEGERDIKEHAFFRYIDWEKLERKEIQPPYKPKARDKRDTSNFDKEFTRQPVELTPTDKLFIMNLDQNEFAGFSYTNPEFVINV", "conditions": "hDMEC, after stimulation with PMA; from cytosol (ditto mark)"}, "PKC isoenzyme η": {"target": "T7, PKC isoenzyme η (Homo sapiens, UniProt P24723)", "T7 construct": "endogenous in cells; host or cells: hDMEC (human dermal microvascular endothelial cells)", "T7 sequence (P24723 whole entry)": "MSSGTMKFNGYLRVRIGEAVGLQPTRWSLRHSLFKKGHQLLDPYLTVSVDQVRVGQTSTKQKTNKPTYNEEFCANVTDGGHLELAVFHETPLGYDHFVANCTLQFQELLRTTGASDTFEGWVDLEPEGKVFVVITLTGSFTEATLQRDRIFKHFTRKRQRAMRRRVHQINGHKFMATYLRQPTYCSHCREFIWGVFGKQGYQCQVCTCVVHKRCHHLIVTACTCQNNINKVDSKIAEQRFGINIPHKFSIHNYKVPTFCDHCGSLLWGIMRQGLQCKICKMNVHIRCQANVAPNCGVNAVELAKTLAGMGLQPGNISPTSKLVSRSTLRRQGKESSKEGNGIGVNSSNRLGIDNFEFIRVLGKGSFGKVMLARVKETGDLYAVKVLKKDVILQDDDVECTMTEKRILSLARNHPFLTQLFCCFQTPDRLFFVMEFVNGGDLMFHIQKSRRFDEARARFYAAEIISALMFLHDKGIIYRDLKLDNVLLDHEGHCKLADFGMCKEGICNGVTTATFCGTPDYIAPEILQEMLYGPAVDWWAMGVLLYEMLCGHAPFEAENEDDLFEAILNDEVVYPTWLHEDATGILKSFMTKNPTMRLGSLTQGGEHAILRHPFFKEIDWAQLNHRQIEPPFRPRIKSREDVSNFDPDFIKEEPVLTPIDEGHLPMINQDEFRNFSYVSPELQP", "conditions": "hDMEC, after stimulation with PMA; from nucleus"}}}
{"smiles": "CCCCCCCCCCCCCC(=O)O[C@@H]1[C@@H](C)[C@@]2(O)[C@@H](C=C(CO)C[C@]3(O)C(=O)C(C)=C[C@@H]23)[C@@H]2C(C)(C)[C@]12OC(C)=O", "note": "[PMA, phorbol myristic acetate]", "values": [{"measurement": "Localization of C1-GFP fusion protein in response to PMA", "setting": "[1]", "result": "membrane bound"}, {"measurement": "Localization after stimulation (To)", "setting": "PKC isoenzyme ζ", "result": "no change"}, {"measurement": "Localization after stimulation (To)", "setting": "PKC isoenzyme δ", "result": "cytoskeletal elements"}, {"measurement": "Localization after stimulation (To)", "setting": "PKC isoenzyme α", "result": "perinuclear membrane"}, {"measurement": "Localization after stimulation (To)", "setting": "PKC isoenzyme ε", "result": "perinucleus"}, {"measurement": "Localization after stimulation (To)", "setting": "PKC isoenzyme βII", "result": "filamentous structures"}, {"measurement": "Localization after stimulation (To)", "setting": "PKC isoenzyme β", "result": "nucleus"}, {"measurement": "Localization after stimulation (To)", "setting": "PKC isoenzyme η", "result": "no change"}]}
